The source made the active and inactive calls.

Cytochrome P450 2C19, sequence (P33261 whole entry): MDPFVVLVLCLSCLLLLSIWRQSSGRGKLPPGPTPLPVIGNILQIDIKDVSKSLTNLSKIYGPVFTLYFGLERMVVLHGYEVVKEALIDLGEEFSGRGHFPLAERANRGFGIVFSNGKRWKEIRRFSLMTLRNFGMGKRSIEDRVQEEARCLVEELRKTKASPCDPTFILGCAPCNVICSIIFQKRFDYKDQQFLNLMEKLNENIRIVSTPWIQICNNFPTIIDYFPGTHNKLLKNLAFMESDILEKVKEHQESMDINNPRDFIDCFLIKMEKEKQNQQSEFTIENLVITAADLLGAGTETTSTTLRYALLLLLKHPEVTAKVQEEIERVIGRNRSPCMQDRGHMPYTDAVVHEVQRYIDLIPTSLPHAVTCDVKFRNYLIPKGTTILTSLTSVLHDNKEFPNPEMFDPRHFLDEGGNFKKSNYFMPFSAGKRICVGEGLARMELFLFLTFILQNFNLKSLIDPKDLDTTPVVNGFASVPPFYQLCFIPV
Cytochrome P450 2D6, sequence (P10635 whole entry): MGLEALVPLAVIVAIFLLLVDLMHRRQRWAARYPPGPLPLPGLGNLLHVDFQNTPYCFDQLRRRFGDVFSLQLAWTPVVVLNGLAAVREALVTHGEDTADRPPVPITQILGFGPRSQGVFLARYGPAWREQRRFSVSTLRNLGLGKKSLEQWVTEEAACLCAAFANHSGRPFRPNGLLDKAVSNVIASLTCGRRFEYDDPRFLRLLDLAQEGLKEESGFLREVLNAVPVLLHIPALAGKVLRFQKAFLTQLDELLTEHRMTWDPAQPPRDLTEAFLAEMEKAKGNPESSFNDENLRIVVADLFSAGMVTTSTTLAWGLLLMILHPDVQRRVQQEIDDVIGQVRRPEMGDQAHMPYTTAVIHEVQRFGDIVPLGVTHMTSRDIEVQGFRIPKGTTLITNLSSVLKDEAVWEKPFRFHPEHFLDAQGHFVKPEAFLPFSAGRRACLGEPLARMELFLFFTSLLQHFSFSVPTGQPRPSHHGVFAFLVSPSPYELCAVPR

Tested on in the first assay: not listed separately
Description: inhibitors of firefly luciferase expression or activity, dose response, H4 neuroglioma cells, luminescence (AID 1990). It counts as functional, cell-based.
Conditions: not given
With `COCC(C)OC(=O)C(C#N)c1nc2ccccc2nc1N1CCN(Cc2ccccc2)CC1` (configuration not stated), the EC50 is 17.6 µM (active). Still for that read-out and setting: under `CCC(C)C1NC(=S)N(C2CCCCC2)C1=O` (configuration not stated) stands > 120 µM (not active); under `CC(Nc1ccccc1CO)C(=O)Nc1cccc(Cl)c1Cl` (configuration not stated), 7.64 µM (active). Still for that read-out and setting: with `COc1c(Br)cc([N+](=O)[O-])c(OC)c1C(=O)NC(=O)Nc1cc(Cl)cc(Cl)c1` the figure was > 120 µM (not active); with `O=C(CN1CCN(Cc2ccccc2Cl)C1=O)NCc1ccccn1`, > 120 µM (not active).

Tested on in the next assay: not listed separately
Description: Luminescence Cell-Based Dose Retest to Confirm Inhibitors of Cancer Stem Cells. [Related pubchem assays (depositor defined):AID2717, AID2721]. It counts as functional. The conditions noted are these: Homo sapiens.
Regarding `Cc1oc(CC(C)C)cc1C(=O)Nc1cccc2ccccc12`, the AC50 is 5 µM (active).

`O=S(=O)(Nc1nc2ccccc2nc1N1CCN(c2ccccc2F)CC1)c1ccc(Cl)cc1`: the AC50 is 4.82 µM (active). On the same count and under the same terms, with `C/C(NNc1ccccc1)=C1/C(=O)NC(=O)N(Cc2ccccc2)C1=O` the figure was 1.03 µM (active). On the same count and under the same terms, under `COC(=O)c1c(NC(=O)/C=C/c2ccc3c(c2)OCO3)sc(C)c1C` stands 4.17 µM (active); under `CCCCc1ccc(NC(=O)Nc2cc(C)nn2C)cc1`, 3.31 µM (active); under `O=[N+]([O-])c1ccc(N/N=C/c2c[nH]c3ccccc23)c(S(=O)(=O)Nc2ccc(Cl)cc2)c1`, 1.15 µM (active). As for `CCOc1ccc(/C=N/NC(=O)COc2ccccc2-c2ccccc2)cc1`, the AC50 is 4.37 µM (active).

Regarding `CN(C)/C=C(\C=N\OCc1ccc(Cl)cc1Cl)C(=O)Nc1ccc(Cl)c(Cl)c1`, the AC50 is 1.5 µM (active).

Tested on in another assay: not listed separately
The assay is described as follows: Luminescence Cell-Based Dose Response HTS to Identify Inhibitors of 5'UTR Stem-Loop Driven Prion Protein mRNA Translation in H4 Neuroglioblastoma Cells. [Related pubchem assays: 1827 (Project Summary), 1813 (Primary HTS)].
Conditions: not given
Type of assay: functional.
As to `COCC(C)OC(=O)C(C#N)c1nc2ccccc2nc1N1CCN(Cc2ccccc2)CC1` (configuration not stated), the EC50 was > 120 µM (not active).

Consider `CCC(C)C1NC(=S)N(C2CCCCC2)C1=O` (configuration not stated), for which the EC50 is reported as > 120 µM (not active). On the same count and under the same terms, with `CC(Nc1ccccc1CO)C(=O)Nc1cccc(Cl)c1Cl` (configuration not stated) the figure was 0.12 µM (active); with `COc1c(Br)cc([N+](=O)[O-])c(OC)c1C(=O)NC(=O)Nc1cc(Cl)cc(Cl)c1`, 17.8 µM (active). With `O=C(CN1CCN(Cc2ccccc2Cl)C1=O)NCc1ccccn1`, the EC50 is on record as > 120 µM (not active).

Tested on in a further assay: not listed separately
Description: inhibitors of SNCA 5'UTR-driven reporter translation, confirmation, H4 neuroglioma cells, luminescence (AID 1988). It counts as functional, cell-based.
Conditions: not given
Regarding `COCC(C)OC(=O)C(C#N)c1nc2ccccc2nc1N1CCN(Cc2ccccc2)CC1` (configuration not stated), the EC50 is 23.7 µM (active). Still for that read-out and setting: under `CCC(C)C1NC(=S)N(C2CCCCC2)C1=O` (configuration not stated) stands > 120 µM (not active). Regarding `CC(Nc1ccccc1CO)C(=O)Nc1cccc(Cl)c1Cl` (configuration not stated), the EC50 is 12.9 µM (active). On to `COc1c(Br)cc([N+](=O)[O-])c(OC)c1C(=O)NC(=O)Nc1cc(Cl)cc(Cl)c1`, for which the EC50 was 15.1 µM (active). `O=C(CN1CCN(Cc2ccccc2Cl)C1=O)NCc1ccccn1`: the EC50 is reported as > 120 µM (not active).

Another assay addresses Cytochrome P450 2C19 (Homo sapiens, UniProt P33261). The assay is described as follows: Cytochrome panel assay with activity outcomes. Panel member name: p450-cyp2c19 Compounds with AC50 equal or less than 10 uM are considered active. The conditions noted are these: read-out: AC50. Type of assay: functional.
Consider `CCOCCn1c(CN(Cc2ccccc2)Cc2ccccc2)nc2c1c(=O)[nH]c(=O)n2C`, for which the AC50 is 17.8 µM (inconclusive).

Tested on in a further assay: not listed separately
The assay is described as follows: Luminescence Cell-Based Dose Confirmation HTS to Identify Inhibitors of Platelet Dense Granule Release. [Related pubchem assays: 1663 (Primary HTS), 1678 (Summary of Project)]. Type of assay: functional.
Conditions: not given
As to `Cc1nn(C(C)C(=O)N2CCc3ccccc3C2)c(=O)c2cc3occc3n12` (configuration not stated), the EC50 was > 112 µM (not active).

A further assay concerns the target T1, Heat shock factor protein 1 (Mus musculus, UniProt P38532).
T1 sequence (P38532 whole entry): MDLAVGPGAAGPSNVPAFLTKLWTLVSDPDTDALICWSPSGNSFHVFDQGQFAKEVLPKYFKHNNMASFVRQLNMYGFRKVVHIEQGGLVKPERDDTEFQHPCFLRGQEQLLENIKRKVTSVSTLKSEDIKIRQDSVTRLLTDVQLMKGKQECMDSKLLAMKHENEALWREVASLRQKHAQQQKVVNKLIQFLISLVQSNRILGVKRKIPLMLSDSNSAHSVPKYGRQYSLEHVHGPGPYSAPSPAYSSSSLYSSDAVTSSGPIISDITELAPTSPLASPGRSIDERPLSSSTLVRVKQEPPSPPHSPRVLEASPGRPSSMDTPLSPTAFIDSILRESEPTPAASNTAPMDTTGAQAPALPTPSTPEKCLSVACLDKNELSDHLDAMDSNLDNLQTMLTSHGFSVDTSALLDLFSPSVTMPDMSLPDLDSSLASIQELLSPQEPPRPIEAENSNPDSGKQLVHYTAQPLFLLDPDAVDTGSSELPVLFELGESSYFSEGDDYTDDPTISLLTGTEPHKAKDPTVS
Description: HSF1 potentiators in luciferase reporter cells, confirmation, cell-based, NIH3T3, luminescence, dose retest (AID 435004).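 Also: stress induced by proteasome inhibitor MG132 added 30 min after compound; luciferase reporter driven by HSF1 response element in NIH3T3 cells; actives raise luminescence as potentiators of the MG132 stress response.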
Conditions: not given
It counts as functional.
Regarding `COc1ccc(N(CC(=O)N2CCc3ccccc32)S(=O)(=O)c2c(C)noc2C)cc1`, the EC50 is 56.1 µM (active). Still for that read-out and setting: under `COc1ccc(-c2coc3cc4oc(=O)c(CC(=O)O)c(C)c4cc23)cc1` stands > 260 µM (inactive). Still for that read-out and setting: under `COc1ccc(C(C[N+](=O)[O-])C2(c3ccc(OC)c(OC)c3)C(=O)c3ccccc3C2=O)cc1` (configuration not stated) stands 13.3 µM (active). For the compound `COCCNC(=O)/C(C#N)=C/c1ccc(OC(=O)c2cccs2)c(OC)c1`, the EC50 is > 260 µM (inactive). As for `O=[N+]([O-])c1cc([N+](=O)[O-])c(Oc2c(F)cccc2F)cc1NN1CCCCC1`, the EC50 is > 260 µM (inactive).

On to `Cc1nn(C)c(Oc2ccccc2)c1CCNS(=O)(=O)c1ccc(Cl)cc1`, for which the EC50 was > 260 µM (inactive).

With `COC(=O)c1ccc(CSc2nnnn2-c2ccc(C)cc2C)o1`, the EC50 is > 260 µM (inactive).

A further assay addresses Cytochrome P450 2D6 (Homo sapiens, UniProt P10635).
Conditions: not given
Turning to `CCOCCn1c(CN(Cc2ccccc2)Cc2ccccc2)nc2c1c(=O)[nH]c(=O)n2C`, the AC50 is 39.8 µM (inconclusive).

The subject of another assay is Streptococcus. Description: Group A Streptococcus viability loss, dose response, counter-screen for streptokinase expression inhibitor project, luminescence, BacTiterGlo (AID 1915).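 Also: potency for reduction of bacterial viability or growth.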 Type of assay: functional, organism-based.
Conditions: not given
Background: A counterscreen serves to expose hits that act by an unwanted route or on another target.
Take `CN(C)/C=C(\C=N\OCc1ccc(Cl)cc1Cl)C(=O)Nc1ccc(Cl)c(Cl)c1`: the EC50 was 3.07 µM (active).

For a further assay, the target named is Luciferin 4-monooxygenase (Photinus pyralis, UniProt P08659). Description: firefly luciferase enzyme inhibitors, dose response, biochemical, luminescence (AID 1891).
Luciferin 4-monooxygenase, sequence (P08659 whole entry): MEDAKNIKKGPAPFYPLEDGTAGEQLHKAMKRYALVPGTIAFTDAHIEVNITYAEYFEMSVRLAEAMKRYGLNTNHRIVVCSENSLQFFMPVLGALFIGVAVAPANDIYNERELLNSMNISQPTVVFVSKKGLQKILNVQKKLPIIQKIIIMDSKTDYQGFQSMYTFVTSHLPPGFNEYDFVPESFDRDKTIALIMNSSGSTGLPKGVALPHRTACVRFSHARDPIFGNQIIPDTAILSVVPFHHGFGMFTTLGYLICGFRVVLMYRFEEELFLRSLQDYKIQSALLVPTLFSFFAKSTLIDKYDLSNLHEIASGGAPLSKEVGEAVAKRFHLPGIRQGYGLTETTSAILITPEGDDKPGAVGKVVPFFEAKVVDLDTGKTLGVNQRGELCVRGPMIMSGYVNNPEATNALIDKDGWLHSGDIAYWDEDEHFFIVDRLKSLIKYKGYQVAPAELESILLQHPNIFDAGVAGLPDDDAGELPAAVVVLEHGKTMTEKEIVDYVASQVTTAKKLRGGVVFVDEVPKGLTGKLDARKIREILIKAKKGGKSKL
Conditions: not given
For the compound `Cc1nn(C(C)C(=O)N2CCc3ccccc3C2)c(=O)c2cc3occc3n12` (configuration not stated), the EC50 is on record as > 112 µM (not active).

Another assay concerns Streptococcus sp. 'group A'. Description: growth inhibition of control SK(-) GAS strain, dose response, counter-screen for streptokinase expression inhibitor project, luminescence, kanamycin, BacTiterGlo, confirmation (AID 1900).
Conditions: not given
Type of assay: functional, organism-based.
Regarding `CN(C)/C=C(\C=N\OCc1ccc(Cl)cc1Cl)C(=O)Nc1ccc(Cl)c(Cl)c1`, the EC50 is 0.618 µM (active).

The target in another assay is Cytochrome P450 3A4 (Homo sapiens, UniProt P08684).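 Also: CYP3A4 tested as one member of a cytochrome P450 panel screen.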
Cytochrome P450 3A4, sequence (P08684 whole entry): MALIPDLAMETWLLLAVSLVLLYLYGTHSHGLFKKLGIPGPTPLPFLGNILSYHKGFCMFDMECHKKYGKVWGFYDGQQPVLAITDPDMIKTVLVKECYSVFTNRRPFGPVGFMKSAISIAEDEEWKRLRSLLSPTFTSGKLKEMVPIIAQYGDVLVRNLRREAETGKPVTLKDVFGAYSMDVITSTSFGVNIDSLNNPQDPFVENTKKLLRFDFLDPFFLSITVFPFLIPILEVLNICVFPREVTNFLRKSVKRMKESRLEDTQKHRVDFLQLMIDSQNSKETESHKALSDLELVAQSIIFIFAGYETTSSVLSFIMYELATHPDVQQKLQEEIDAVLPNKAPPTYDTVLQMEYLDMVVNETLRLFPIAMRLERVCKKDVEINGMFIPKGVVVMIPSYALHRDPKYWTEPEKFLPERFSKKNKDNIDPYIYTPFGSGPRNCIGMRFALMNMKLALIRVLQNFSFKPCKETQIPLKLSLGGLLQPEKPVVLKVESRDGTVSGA
Conditions: not given
As for `CCC(C)C1NC(=S)N(C2CCCCC2)C1=O` (configuration not stated), the AC50 is 17.8 µM (inconclusive).

For orientation: EC50 means the midpoint of the concentration-response curve. As usually defined, the AC50 is the midpoint of the concentration-response curve, whichever way the signal moves.
